According to EP3046573B1, “AMYLIN ANALOGUES” (Zealand Pharma A/S, priority 2013, dated 2015):
Numbered stars: 1 amine (or outer) side, 2 acyl side, 3 side chain; on linkers, the order of the positions; unused ones are H or OH. Bridge positions count the residues as written; N and C are the ends. Square brackets hold non-standard residues; d marks the D form. Peptide text beside a SMILES is read from it. * marks the point of attachment. C20 diacid = O=C(O)CCCCCCCCCCCCCCCCCCC(=O)*; γGlu = O=C(O)[C@H](CCC(=O)[*:2])N[*:1]; NMeY = CN[C@@H](Cc1ccc(O)cc1)C(=O)O; NMeI = CC[C@H](C)[C@H](NC)C(=O)O; Sar = CNCC(=O)O

Tests used:
[1] = Assessment of chemical stability: normalized purity by RP-HPLC after incubation at 40 °C; type: physicochemical; settings: normalized purity (T=0 set to 100), 0.2 mg/ml
Experimental: Samples of each test peptide were dissolved in MilliQ™ water, and the pH of the solution was adjusted to pH 4, pH 7.5 or pH 9, respectively, using either HCI or NaOH. The final peptide concentration was 0.2 mg/ml. Samples were placed in glass vials and incubated at 40 °C. The samples were analyzed by RP-HPLC on a C8 column with gradient elution using an ammonium formate/water eluent system, or on a C18 column with gradient elution using a trifluoroacetic acid/water eluent system. The area-percentage (area-%) of the main peak after incubation time T = t (relative to time T = 0) was determined by UV spectroscopy at 220 nm.
The purity was first determined as follows: Purity(area−%) = (area of main peak/total area of all peaks) × 100. [formula]
The purity was then normalized between time points by setting purity at time 0 (T=0) to 100 for each pH value for a given peptide, as follows: Normalised area−%at time t(T = t) = [area−%(T = t)/area−%(T = 0)] × 100. [formula]
The normalized purity values in Table 2 were determined after 7 days of incubation. Table 2. EC50, chemical stability and fibrillation data for compounds of the invention

[2] = target: T1, human calcitonin receptor (hCTR2) (Homo sapiens, UniProt P30988); assay: hCTR2 assay: induction of cAMP (AlphaScreen cAMP Assay kit) in COS7 cells expressing hCTR2; type: cell-based
T1 construct: expressed in transfected cells
T1 sequence (P30988 25-474): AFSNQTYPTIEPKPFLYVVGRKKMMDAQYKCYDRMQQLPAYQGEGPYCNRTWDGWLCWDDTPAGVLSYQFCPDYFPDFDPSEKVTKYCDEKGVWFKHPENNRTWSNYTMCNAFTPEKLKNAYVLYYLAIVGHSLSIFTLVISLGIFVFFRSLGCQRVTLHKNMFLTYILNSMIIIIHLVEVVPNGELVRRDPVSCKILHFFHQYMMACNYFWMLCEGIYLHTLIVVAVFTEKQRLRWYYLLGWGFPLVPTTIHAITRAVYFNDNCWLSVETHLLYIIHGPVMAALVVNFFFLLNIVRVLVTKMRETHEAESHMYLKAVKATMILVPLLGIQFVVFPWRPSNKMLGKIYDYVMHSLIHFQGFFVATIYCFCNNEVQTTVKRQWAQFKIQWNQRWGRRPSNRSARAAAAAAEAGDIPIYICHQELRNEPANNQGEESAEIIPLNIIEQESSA
In short: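 Cells were seeded one day ahead, washed, then exposed to rising peptide concentrations for 15 min at 37° C in the presence of 100 µM IBMX. After lysis for 10 min at room temperature, cAMP was quantified by AlphaScreen and EC50 values derived by 4PL fitting.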

[3] = Solubility assessment (turbidity absorbance at 325 nm); type: physicochemical; settings: stock 2 mg/ml diluted 1:1, ambient temperature (typically 25°C), n=1
In short: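 Read-out: turbidity as absorbance at 325 nm (280 nm also read), single samples, ambient temperature of typically 25°C. Samples were a 1:1 mix of 2 mg/ml stock (water, pH 2.5) with 100 mM acetate, histidine or phosphate buffers spanning pH 4.0–7.5. Cut-off: A325 ≤ 0.02 indicates ≥ 1 mg/ml.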

[4] = Assessment of physical stability: fibril formation detected with Thioflavin T (ThT), lag-time; type: physicochemical; settings: 1 mg/ml peptide, 40 µM ThT, FND = Fibrillation not detected
Experimental: Solutions containing (i) 1 mg/ml of test peptide, 40 µM ThT and 50 mM phosphate (Ph) buffer (pH 7.0), (ii) 1 mg/ml of test peptide, 40 µM ThT and 50 mM histidine (His) buffer (pH 7.0), and (iii) 1 mg/ml of test peptide, 40 µM ThT and 50 mM acetate (Ac) buffer (pH 4.0), were loaded in a 96-well black fluorescence plate (clear bottom) in triplicate. Data were collected at fixed intervals of 10 min, each preceded by 300 s of automixing (agitation), over a period of 96 hours at 40° C. Physical stability, expressed as lag-time of fibril formation (in hours), was defined as the intersection between two linear regressions representing the initial stable phase and the growth phase.

Sprague Dawley (SD) rats = assay: Acute food intake and body weight in normal Sprague Dawley rats; type: in vivo; settings: vehicle-corrected, dose 30 nmol/kg sc, once
Experimental: Sprague Dawley (SD) rats were obtained from Taconic A/S, Denmark. The animals arrived at least 7 days before the study start to allow acclimatization to experimental conditions. From arrival and throughout the study, the rats were housed in groups of 2 (n = 2) in a light-, temperature- and humidity-controlled room (reversed 12/12 h light/dark cycle: lights turned off during day-time and on during night-time; temperature 20-22°C; relative humidity 50-80%). Animals had access ad libitum to food (Altromin™ 1324, Brogaarden A/S, Gentofte, Denmark) and water (domestic quality tap water with citric acid added to pH ∼ 3.6) during the entire study. Stratification of rats was based on body weight (BW) on a cage-by-cage basis; mean BWs per cage were used as the basis for pairing four cages together in a group (n = 8 per group). A vehicle group and positive control group were included in each set of tests. Rats were dosed subcutaneously (sc) once in the morning immediately before turning off the lights, using a body weight-corrected dose of peptide (30 nmol/kg). Dosing volume was 5 ml/kg. Food intake was recorded manually at t = 0 (pre-dose) and at t = 4, 7, 10, 24, 48, 72 and 96 hours after dosing. Body weight was measured daily.
Statistical analyses on body weight were performed using GraphPad™ Prism version 5. The measured parameters were compared using unpaired t tests. Differences were considered statistically significant at p < 0.05. Data are means ± SEM; n =8.

In the case of `CC[C@H](C)[C@@H](C(=O)N[C@@H](CC(C)C)C(=O)N[C@@H](CO)C(=O)N[C@@H](CO)C(=O)N[C@H](C(=O)N[C@@H](CC(N)=O)C(=O)N[C@H](C(=O)NCC(=O)N[C@@H](CO)C(=O)N[C@@H](CC(N)=O)C(=O)N[C@H](C(=O)N1CCC[C@H]1C(N)=O)[C@@H](C)O)C(C)C)[C@@H](C)O)N(C)C(=O)[C@H](C)NC(=O)CN(C)C(=O)[C@H](Cc1ccccc1)NC(=O)[C@H](CC(N)=O)NC(=O)[C@H](CC(N)=O)NC(=O)[C@@H](CO)NC(=O)[C@H](CO)NC(=O)[C@H](Cc1c[nH]cn1)NC(=O)[C@H](Cc1c[nH]cn1)NC(=O)[C@H](CC(C)C)NC(=O)[C@H](Cc1ccccc1)NC(=O)[C@H](CCC(=O)O)NC(=O)[C@H](C)NC(=O)[C@H](CC(C)C)NC(=O)[C@H](CCCNC(=N)N)NC(=O)[C@H](CCC(N)=O)NC(=O)[C@@H](NC(=O)[C@H](C)NC(=O)[C@@H]1CSSC[C@H](NC(=O)[C@H](CCCNC(=N)N)NC(=O)CC[C@H](NC(=O)CCCCCCCCCCCCCCCCCCC(=O)O)C(=O)O)C(=O)N[C@@H](CC(N)=O)C(=O)N[C@@H]([C@@H](C)O)C(=O)N[C@@H](C)C(=O)N[C@@H]([C@@H](C)O)C(=O)N1)[C@@H](C)O` [Compound 31, [19CD]-isoGlu-RC()NTATC()ATQRLAEFLHHS-DSer-NNF-Gly(Me)-A-Ile(Me)-LSSTNVGSNTP-NH2] ({C20 diacid-γGlu}-RCNTATCATQRLAEFLHHS[dS]NNF[Sar]A[NMeI]LSSTNVGSNTP-NH2; disulfide 2-7), the “Chem. stability; 7 days, 40°C pH 4” value ([1]; pH 4, 7 days) is reported as 80 area-% and the “Chem. stability; 7 days, 40°C pH 7.5” value ([1]; pH 7.5, 7 days) is reported as 66 area-%.

For `CC[C@H](C)[C@@H](C(=O)N[C@@H](CC(C)C)C(=O)N[C@@H](CO)C(=O)N[C@@H](CO)C(=O)N[C@H](C(=O)N[C@@H](CC(N)=O)C(=O)N[C@H](C(=O)NCC(=O)N[C@@H](CO)C(=O)N[C@@H](CC(N)=O)C(=O)N[C@H](C(=O)N(C)[C@@H](Cc1ccc(O)cc1)C(N)=O)[C@@H](C)O)C(C)C)[C@@H](C)O)N(C)C(=O)[C@H](C)NC(=O)CN(C)C(=O)[C@H](Cc1ccccc1)NC(=O)[C@H](CC(N)=O)NC(=O)[C@H](CC(N)=O)NC(=O)[C@H](CO)NC(=O)[C@H](CO)NC(=O)[C@H](Cc1c[nH]cn1)NC(=O)[C@H](Cc1c[nH]cn1)NC(=O)[C@H](CC(C)C)NC(=O)[C@H](Cc1ccccc1)NC(=O)[C@H](CCC(=O)O)NC(=O)[C@H](C)NC(=O)[C@H](CC(C)C)NC(=O)[C@H](CCCNC(=N)N)NC(=O)[C@H](CCC(N)=O)NC(=O)[C@@H](NC(=O)[C@H](C)NC(=O)[C@@H]1CSSC[C@H](NC(=O)[C@H](CCCNC(=N)N)NC(=O)CC[C@H](NC(=O)CCCCCCCCCCCCCCCCCCC(=O)O)C(=O)O)C(=O)N[C@@H](CC(N)=O)C(=O)N[C@@H]([C@@H](C)O)C(=O)N[C@@H](C)C(=O)N[C@@H]([C@@H](C)O)C(=O)N1)[C@@H](C)O` [Compound 61, [19CD]-isoGlu-RC()NTATC()ATQRLAEFLHHSSNNF-Gly(Me)-A-Ile(Me)-LSSTNVGSNT-Tyr(Me)-NH2] ({C20 diacid-γGlu}-RCNTATCATQRLAEFLHHSSNNF[Sar]A[NMeI]LSSTNVGSNT[NMeY]-NH2; disulfide 2-7), the EC50 [2] was 0.3 nM, the “Solubility, Acetate buffer pH 4” value ([3]; 100 mM acetate buffer pH 4.0) was “SS (SS indicates solubility ≥ 1mg/ml)” and the “Solubility, Acetate buffer pH 5” value ([3]; 100 mM acetate buffer pH 5.0) was “SS (SS indicates solubility ≥ 1mg/ml)”. The “Solubility, Histidine buffer pH 6” value ([3]; 100 mM histidine buffer pH 6.0) was “II (II indicates solubility ≤ 1 mg/ml)”, the “Solubility, Histidine buffer pH 7” value ([3]; 100 mM histidine buffer pH 7.0) was “II (II indicates solubility ≤ 1 mg/ml)” and the “Solubility, Phosphate buffer pH 6” value ([3]; 100 mM phosphate buffer pH 6.0) was “II (II indicates solubility ≤ 1 mg/ml)”. The “Solubility, Phosphate buffer pH 7” value ([3]; 100 mM phosphate buffer pH 7.0) was “II (II indicates solubility ≤ 1 mg/ml)”, the “Solubility, Phosphate buffer pH 7.5” value ([3]; 100 mM phosphate buffer pH7.5) was “II (II indicates solubility ≤ 1 mg/ml)” and the “Fibrillation lag time (hours) pH 4.0 (Ac)” value ([4]; 50 mM acetate buffer pH 4.0, 96 hours at 40°C) was “FND”. For the same molecule, the “Fibrillation lag time (hours) pH 7.0 (His)” value ([4]; 50 mM histidine buffer pH 7.0, 96 hours at 40°C) was 3 hours, the “Fibrillation lag time (hours) pH 7.0 (Ph)” value ([4]; 50 mM phosphate buffer pH 7.0, 96 hours at 40°C) was 3 hours and the “Food intake inhibition (%) after 48 hours” value (Sprague Dawley (SD) rats; 48 hours) was 24%. For the same molecule, the “Body weight loss (%) after 96 hours” value (Sprague Dawley (SD) rats; mean ± SEM, 96 hours, n = 8) was 1 ± 1.6 %.
